From patent publication US8349835B2, “Aromatic ring fused triazine derivatives and uses thereof” (Shenyang Pharmaceutical University, priority 2008, dated 2013) come the findings set out here.

By inhibition is commonly meant the relative decrease from the control value, in per cent. A lower inhibition goes with little suppression.

Sequence of VEGFR-2 (P35968 20-1356): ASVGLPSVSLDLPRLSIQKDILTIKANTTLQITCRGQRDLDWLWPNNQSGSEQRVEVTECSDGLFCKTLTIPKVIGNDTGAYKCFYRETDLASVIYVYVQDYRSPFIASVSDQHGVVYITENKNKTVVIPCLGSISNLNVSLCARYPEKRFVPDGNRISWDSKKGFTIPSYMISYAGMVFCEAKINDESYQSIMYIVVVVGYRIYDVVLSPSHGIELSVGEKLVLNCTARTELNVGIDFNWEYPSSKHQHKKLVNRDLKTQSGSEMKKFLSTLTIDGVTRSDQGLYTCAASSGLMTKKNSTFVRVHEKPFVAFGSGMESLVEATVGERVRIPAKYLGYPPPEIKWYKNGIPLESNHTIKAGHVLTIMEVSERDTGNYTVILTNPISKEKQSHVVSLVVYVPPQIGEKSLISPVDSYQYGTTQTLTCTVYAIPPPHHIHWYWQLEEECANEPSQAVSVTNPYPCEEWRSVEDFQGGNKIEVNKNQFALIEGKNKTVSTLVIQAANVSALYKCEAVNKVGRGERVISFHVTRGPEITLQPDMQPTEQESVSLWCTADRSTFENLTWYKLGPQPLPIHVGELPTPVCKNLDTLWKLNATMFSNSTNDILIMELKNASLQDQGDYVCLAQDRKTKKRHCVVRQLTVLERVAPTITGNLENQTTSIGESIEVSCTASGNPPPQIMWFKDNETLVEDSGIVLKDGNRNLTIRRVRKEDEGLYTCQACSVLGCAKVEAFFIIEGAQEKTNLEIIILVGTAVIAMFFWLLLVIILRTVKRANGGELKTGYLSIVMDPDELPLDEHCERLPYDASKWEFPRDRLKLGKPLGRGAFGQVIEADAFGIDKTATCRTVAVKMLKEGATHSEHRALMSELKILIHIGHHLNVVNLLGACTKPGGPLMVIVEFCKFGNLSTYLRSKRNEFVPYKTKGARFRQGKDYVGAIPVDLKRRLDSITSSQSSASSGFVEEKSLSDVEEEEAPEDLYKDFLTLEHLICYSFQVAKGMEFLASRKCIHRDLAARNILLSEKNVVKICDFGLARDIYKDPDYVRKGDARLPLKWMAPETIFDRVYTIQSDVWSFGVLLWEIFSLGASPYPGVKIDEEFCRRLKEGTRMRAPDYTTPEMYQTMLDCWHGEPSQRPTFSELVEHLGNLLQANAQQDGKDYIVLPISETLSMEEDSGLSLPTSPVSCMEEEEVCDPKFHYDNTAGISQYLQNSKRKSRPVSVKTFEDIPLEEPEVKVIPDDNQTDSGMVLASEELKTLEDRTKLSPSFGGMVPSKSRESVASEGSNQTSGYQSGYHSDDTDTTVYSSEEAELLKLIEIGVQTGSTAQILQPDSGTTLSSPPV

The first assay deals with Rat aortic ring. The assay is described as follows: Rat Aortic Ring Assay. Format: cell-based. Conditions: Rattus norvegicus; 10 ug/ml, compared with blank control, sixth day. The source says: Rat Aortic Ring Assay • 1) 6 week old SD […] (Sprague Dawley) were selected for the experiments. Cleaned abdominal skin with 75% ethanol to disinfect, and then anesthetized the mice with ether, • 2) Carefully removed the abdominal aortas and transferred the aortas to normal saline. Excessive vascular tissues were carefully removed with scissors. • 3) The aortas were rinsed with normal saline until no blood stain remained. • 4) Sectioned the aortas into one millimeter depth arterial slices with ophthalmological scissors. • 5) Add 50 μL pre-thawed Matrigel to each well of the pre-cooled 96 well cell culture plates, and embedded the ring-shaped mouse aortas in collagen gel. • 6) Incubated for 60 minutes at 37° C. to solidificate the gel. • 7) Added DMEM culture solution containing 10% FBS, along with different concentrations of the selected compounds into the wells and cultured in the incubator. Every compound was repeated in no less than 3 wells. • 8) Replaced with the fresh medium and changed the medicine once on the third day. • 9) Took out the pates on the sixth day, and observed the vascular growth with Microscope (OLYMPUS, DP70, Japan) and took photographs(×100). Randomly chose 3 arterial rings to photograph and calculated the area covered by micro-vascular with Image Pro Plus software. The inhibition rate is calculated as:
[formula] • Evaluation criteria: ⋆inhibition rate[…]; ⋆⋆inhibition rate 60-90%; ⋆⋆⋆inhibition rate>90%.
In the case of `CCOc1cc2nnnc(Nc3ccc(C(F)(F)F)cc3)c2cc1OC` [Example 35, 6-methoxy-7-ethoxy-4-(4-trifluoromethylanilino)-benzo[d][1,2,3]triazine], the inhibition at 10 µg/mL is approximately 40%. Still for that read-out and setting: to `CCOc1cc2nnnc(Nc3ccccc3)c2cc1OC` [Example 28, 6-methoxy-7-ethoxy-4-anilino-benzo[d][1,2,3]triazine] belongs approximately 40%. On the same count and under the same terms, the same measure for `COc1cc2c(Nc3cc(F)cc(F)c3)nnnc2cc1OCCCCl` [Example 64, 6-methoxy-7-chloropropoxy-4-(3,5-difluoroanilino)-benzo[d][1,2,3]triazine]: more than 50%.

Staying with this assay, now noted: compared with blank control, sixth day.
With `COc1cc2c(Nc3ccc(F)c(Cl)c3)nnnc2cc1OCCCN1CCN(C)CC1.Cl` [Example 96, 6-methoxy-7-(3-N-methylpiperazin-1-yl-propoxy)-4-(3-chloro-4-fluoroanilino)-benzo[d][1,2,3]triazin-4-amine hydrochloride], the “Rat Aortic Ring Assay (10 ug/ml), inhibition” value is “Vessel formation became less, about 30% inhibition”.

Still in this assay, the particulars now being: observed on the sixth day.
Turning to `CCCCOc1cc2nnnc(Nc3ccc(C(F)(F)F)cc3)c2cc1OC` [Example 18, 6-methoxy-7-n-butoxy-4-(4-trifluoromethylanilino)-benzo[d][1,2,3]triazine], the “Rat Aortic Ring Assay (10 ug/ml), result in words” value is given as “No significant inhibition”. On the same count and under the same terms, the same measure for `COc1cc2c(Nc3ccc(F)c(Cl)c3)nnnc2cc1OCCCN1CCOCC1` [Example 94, 6-methoxy-7-(3-morpholinopropoxy)-4-(3-chloro-4-fluoroanilino)-benzo[d][1,2,3]triazine]: “No significant inhibition”; for `CCOc1cc2nnnc(Nc3ccc(C)cc3)c2cc1OC` [Example 43, 6-methoxy-7-ethoxy-4-(4-methylanilino)-benzo[d][1,2,3]triazine]: “No significant inhibition”. On the same count and under the same terms, the same measure for `CCCCOc1cc2nnnc(Nc3cccc(C(F)(F)F)c3)c2cc1OC` [Example 17, 6-methoxy-7-n-butoxy-4-(3-trifluoromethylanilino)-benzo[d][1,2,3]triazine]: “No significant inhibition compared with the blank control”. Same read-out and setting: the same measure for `COc1cc2c(Nc3ccc(F)c(Cl)c3)nnnc2cc1OCCCN1CCCCC1.Cl` [Example 95, 6-methoxy-7-(3-(piperidin-1-yl)-propoxy)-4-(3-chloro-4-fluoroanilino)-benzo[d][1,2,3]triazine hydrochloride]: “Vascular growth was significantly inhibited, vascular ring was dead”.

A further assay has as its target VEGFR-2 (Homo sapiens, UniProt P35968). The experiment in a line: VEGFR-2 inhibition rate test (kinase assay kit, colorimetric ELISA). Conditions: concentration not given. Background: ELISA stands for enzyme-linked immunosorbent assay.
For `CCCCOc1cc2nnnc(Nc3ccc(C(F)(F)F)cc3)c2cc1OC` [Example 18, 6-methoxy-7-n-butoxy-4-(4-trifluoromethylanilino)-benzo[d][1,2,3]triazine], the “Kinase inhibition rate (VEGFR-2)” value was found to be 3.20. On to `CCCCCOc1cc2nnnc(Nc3ccccc3F)c2cc1OC` [Example 57, 6-methoxy-7-pentyloxy-4-(2-fluoroanilino)-benzo[d][1,2,3]triazine], for which the “Kinase inhibition rate (VEGFR-2)” value is given as 10.42. Same read-out and setting: the same measure for `Clc1cc(Cl)cc(Nc2nnnc3ccccc23)c1` [Example 10, 4-(3,5-dichloroanilino)-1,2,3-benzotriazine]: −2.67; for `Fc1ccc(Nc2nnnc3ccccc23)cc1` [Example 2, 4-(4-fluoroanilino)-benzo[d][1,2,3]triazine]: −22.99. The same measure, in the same setting: to `CCCCCOc1cc2nnnc(Nc3cccc(OC(F)(F)F)c3)c2cc1OC` [Example 52, 6-methoxy-7-pentyloxy-4-(3-trifluoromethoxyanilino)-benzo[d][1,2,3]triazine] belongs 2.13; to `CCOc1cc2nnnc(Nc3ccc(C)cc3)c2cc1OC` [Example 43, 6-methoxy-7-ethoxy-4-(4-methylanilino)-benzo[d][1,2,3]triazine], 43.56; to `CCCCOc1cc2nnnc(Nc3ccc(Cl)cc3)c2cc1OC` [Example 16, 6-methoxy-7-n-butoxy-4-(4-chloroanilino)-benzo[d][1,2,3]triazine], −12.03.

Turning to `Fc1ccc(Nc2nnnc3ccccc23)cc1C(F)(F)F` [Example 9, 4-(3-trifluoromethyl-4-fluoroanilino)-benzo[d][1,2,3]triazine], the “Kinase inhibition rate (VEGFR-2)” value is given as 1.60.

For `CCCCOc1cc2nnnc(Nc3ccc(F)cc3)c2cc1OC` [Example 26, 6-methoxy-7-n-butoxy-4-(4-fluoroanilino)-benzo[d][1,2,3]triazine], the “Kinase inhibition rate (VEGFR-2)” value is 9.89. Take `Fc1cc(F)cc(Nc2nnnc3ccccc23)c1` [Example 5, 4-(3,5-difluoroanilino)-benzo[d][1,2,3]triazine]: the “Kinase inhibition rate (VEGFR-2)” value is reported as −5.34. As to `CCCCOc1cc2nnnc(Nc3ccc(Br)c(F)c3)c2cc1OC` [Example 12, 6-methoxy-7-n-butoxy-4-(3-fluoro-4-bromoanilino)-benzo[d][1,2,3]triazine], the “Kinase inhibition rate (VEGFR-2)” value turned out to be 9.09. On the same count and under the same terms, the same measure for `COc1cc2c(Nc3cccc(Cl)c3)nnnc2cc1OCCCCl` [Example 71, 6-methoxy-7-chloropropoxy-4-(3-chloroanilino)-benzo[d][1,2,3]triazine]: 21.14; for `Fc1cc(Nc2nnnc3ccccc23)ccc1Br` [Example 8, 4-(3-fluoro-4-bromoanilino)-benzo[d][1,2,3]triazine]: −6.95. Same read-out and setting: the same measure for `CCCCCOc1cc2nnnc(Nc3cc(Cl)cc(Cl)c3)c2cc1OC` [Example 46, 6-methoxy-7-pentyloxy-4-(3,5-dichloroanilino)-benzo[d][1,2,3]triazine]: −0.53; for `CCCCCOc1cc2nnnc(Nc3cccc(Cl)c3)c2cc1OC` [Example 54, 6-methoxy-7-pentyloxy-4-(3-chloroanilino)-benzo[d][1,2,3]triazine]: 3.20. The same measure, in the same setting: the same measure for `CCCCOc1cc2nnnc(Nc3cc(F)cc(F)c3)c2cc1OC` [Example 14, 6-methoxy-7-n-butoxy-4-(3,5-difluoroanilino)-benzo[d][1,2,3]triazine]: −0.80; for `CCCCCOc1cc2nnnc(Nc3ccccc3)c2cc1OC` [Example 44, 6-methoxy-7-pentyloxy-4-anilino-benzo[d][1,2,3]triazine]: −22.45. For `CCCCOc1cc2nnnc(Nc3cccc(C(F)(F)F)c3)c2cc1OC` [Example 17, 6-methoxy-7-n-butoxy-4-(3-trifluoromethylanilino)-benzo[d][1,2,3]triazine], the “Kinase inhibition rate (VEGFR-2)” value is −5.34. With `CCCCCOc1cc2nnnc(Nc3ccc(C)cc3)c2cc1OC` [Example 60, 6-methoxy-7-pentyloxy-4-(4-methylanilino)-benzo[d][1,2,3]triazine], the “Kinase inhibition rate (VEGFR-2)” value was determined as 7.75.

On to `CCCCCOc1cc2nnnc(Nc3cccc(Br)c3)c2cc1OC` [Example 58, 6-methoxy-7-pentyloxy-4-(3-bromoanilino)-benzo[d][1,2,3]triazine], for which the “Kinase inhibition rate (VEGFR-2)” value is −5.61. For `Fc1ccc(Nc2nnnc3ccccc23)cc1Cl` [Example 1, 4-(3-chloro-4-fluoroanilino)-benzo[d][1,2,3]triazine], the “Kinase inhibition rate (VEGFR-2)” value turned out to be 3.47. Still for that read-out and setting: the same measure for `CCOc1cc2nnnc(Nc3ccccc3)c2cc1OC` [Example 28, 6-methoxy-7-ethoxy-4-anilino-benzo[d][1,2,3]triazine]: 45.98; for `COc1cc2c(Nc3cc(F)cc(F)c3)nnnc2cc1OCCCCl` [Example 64, 6-methoxy-7-chloropropoxy-4-(3,5-difluoroanilino)-benzo[d][1,2,3]triazine]: 10.73. The same measure, in the same setting: the same measure for `CCCCOc1cc2nnnc(Nc3ccccc3)c2cc1OC` [Example 11, 6-methoxy-7-butoxy-4-anilino-benzo[d][1,2,3]triazine]: −4.27.
